The subject of the test is patients with chronic constipation. In words: Response by serotonin transporter (SLC6A4) promoter insertion/deletion genotype. It is filed as in vivo, human. The conditions noted are these: for OR: tegaserod vs placebo. The text has this: Two major classes of insertion/deletion polymorphisms have been characterized for the SLC6A4 gene, one in intron 2 and another in the promoter region. SLC6A4 is the serotonin transporter gene, also know as SERT or HTT. Camilleri and colleagues reported that SLC6A4 promoter insertion/deletion polymorphism was associated with colonic transit response following treatment with the serotonin 5-HT3 receptor antagonist alosetron. Camilleri M et al., Gastroenterology; 123 (2):425-32 (2002). […] The overall response rates for C16-C16 were 48% for tegaserod and 21% for placebo (OR=3.51, 95% CI: 1.67-7.41) compared to the C14-C14 homozygotes at 45% for tegaserod and 27% for placebo (OR=2.3, 95% CI: 0.93-5.69) and C14-C16 heterozygotes at 43% for tegaserod and 28% for placebo (OR=1.95; 95% CI: 1.12-3.41). Within a given treatment group, there was no statistically significant difference between response rates between the different genotypes.

For `[H]/N=C(/NCCCCC)N/N=C/c1c[nH]c2ccc(OC)cc12` [tegaserod, Tegaserod], the overall response rate is, setting by setting: (serotonin transporter promoter polymorphism C14-C14 homozygotes) 45%; (serotonin transporter promoter polymorphism C14-C16 heterozygotes) 43%; (serotonin transporter promoter polymorphism C16-C16 homozygotes) 48%. Besides, the OR by setting is: (C14-C14 homozygotes) 2.3; (C14-C16 heterozygotes) 1.95; (C16-C16 homozygotes) 3.51.

Source of the values: US20090118350A1, “Biomarkers for Identifying Efficacy of Tegaserod in Patients with Chronic Constipation” (priority 2005, published 2009).
